Data taken from patent US20230270767A1, “INHIBITORS OF ENPP1 AND METHODS OF USING SAME” (The Regents of the University of California, priority 2017, published 2023).

Legend:
[1] = tested on: C3H mice; assay: Post injury cardiac calcification after cardiac cryo injury in mice (gross inspection, micro CT, biochemical calcium measurement); type: in vivo, mouse; conditions: for post injury cardiac calcification on gross inspection: ENPP1 inhibitor by continuous infusion (mini pump) for 2 days prior to cardiac injury and 5 days after injury, compared to vehicle; for reduction in calcium deposits in the injured hearts (biochemical measurements): ENPP1 inhibitor by continuous infusion for 2 days prior to and 5 days after injury, p<0.05; for decrease in calcific deposits / calcification on micro CT with 3D reconstruction: ENPP1 inhibitor by continuous infusion for 2 days prior to cardiac injury and 5 days after injury, compared to vehicle treated animals
Excerpt: We next investigated whether cardiac fibroblasts can adopt osteoblast cell like fates in vivo and directly contribute to ectopic calcification of the myocardium. To address this question, we created three murine models of myocardial calcification and determined with lineage trace techniques whether genetically labeled cardiac fibroblasts adopted an osteoblast phenotype and contributed to heart calcification in vivo. Cardiac injury or aging in certain strains of mice (e.g. C3H/HeJ, BALB/cByJ, DBA/2J) can lead to the development of calcification within the myocardium (Glass et al., 2013);(Ivandic et al., 1996);(Korff et al., 2006). We used several different methods to induce myocardial injury in C3H strain of mice. First, we administered high dose systemic steroids daily for 10 days which is known to induce myocyte necrosis (Sparks et al., 1955). […] Finally, ischemic injury of the myocardium by ligating the left anterior descending (LAD) coronary artery, (Korff et al., 2006) led to patchy calcification of the injury region within 4 weeks of ischemic insult (Cell Stem Cell (2017) 20:1-15, the FIGURE). Consistent with the known association of fibrosis and calcification, we observed calcification only in regions where there was fibrosis (identified by Masson trichrome staining) (Cell Stem Cell (2017) 20:1-15, the FIGURE).
Calcification of the extracellular matrix is critically regulated by the balance of extracellular phosphate (Pi) and pyrophosphate (PPi) (Terkeltaub, 2001). Pyrophosphate is generated at the cell surface by the enzyme ectonucleotide pyrophosphatase/phosphodiesterase-1 (ENPP1) that breaks down ATP to AMP and PPi. Pyrophosphate is well recognized to inhibit calcium hydroxyapatite mineralization (Rutsch et al., 2011) in non-skeletal tissues, but in bone and teeth, pyrophosphate promotes mineralization by serving as a substrate for tissue non specific alkaline phosphatase that hydrolyzes pyrophosphate to generate inorganic phosphate (Terkeltaub, 2006). ENPP1 is expressed in osteoblasts, thought to regulate osteoblast maturation and bone mineralization and animals deficient in ENPP1 have decreased mineralization of long bones (Johnson et al., 2003). Considering the importance of ENPP1 in mineralization of the skeleton, we examined whether ENPP1, a gene identified by us to be differentially expressed (by RNA-seq) between calcific and non-calcified cardiac regions was contributing to ectopic cardiac calcification. We first confirmed our observation and subjected C3H mice and B6 mice to cryo-induced cardiac injury. […] Immunostaining for ENPP1 confirmed that ENPP1 was expressed in uninjured B6 hearts (Cell Stem Cell (2017) 20:1-15, the FIGURE) and was more abundant following injury (Cell Stem Cell (2017) 20:1-15, the FIGURE). […] We next determined whether cardiac fibroblasts in the injury region were a source of increased ENPP1 expression. We subjected Col1a2CreERT:R26R^tdTomato mice hearts to cardiac injury and observed abundant expression of ENPP1 by tdTomato labeled cardiac fibroblasts in calcified regions. (Cell Stem Cell (2017) 20:1-15, the FIGURE). Extracellular pyrophosphate generated by ENPP1 can induce mineralization of tissues by precipitating out as calcium pyrophosphate dihydrate (CPPD) or serving as a substrate for phosphate generation and formation of calcium hydroxyapatite. To distinguish between these two, we performed Raman spectroscopy (Chen et al., 2009) and observed that the myocardial calcific deposits comprised calcium hydroxyapatite and not pyrophosphate dihydrate (Cell Stem Cell (2017) 20:1-15, the FIGURE). PPi generated by ENPP1 can be hydrolyzed by tissue non-specific alkaline phosphatase (TNAP) to Pi. The heart is known to express TNAP and we confirmed that both injured and uninjured cardiac tissue is rich in tissue non-specific alkaline phosphatase (TNAP) (Cell Stem Cell (2017) 20:1-15, the FIGURE). […]

[2] = tested on: C3H animals; assay: Echocardiography of cardiac function after cardiac cryo-injury; type: in vivo, mouse
Excerpt: We next investigated the physiologic significance of inhibiting cardiac calcification on cardiac function. In a subset of C3H animals, we performed echocardiography to determine cardiac function prior to cardiac cryo-injury and following administration of etidronate. […] Etidronate had no effect on sham injured hearts (Cell Stem Cell (2017) 20:1-15, the FIGURE).

[3] = post injury, compared to vehicle treated control animals

Row | SMILES | amount of deposited calcium ([1]; administered after the development of calcification, data not shown) | calcification on gross inspection or on CT scans ([1]; administered one day prior to cardiac cryo injury and then daily till hearts were harvested) | calcific phenotype ([1]; administered one day prior to cardiac cryo injury and then daily till hearts were harvested, vs vehicle injected controls) | post injury cardiac function ([2]; C3H animals, cardiac cryo-injury, echocardiography) | Ejection fraction ([2]; following injury) | fractional shortening ([2]; following injury) | systolic function ([2]; injured animals, echocardiography) | left ventricular end diastolic diameter (LVEDD) [2, 3] | left ventricular end systolic diameter (LVESD) [2, 3] | effect on sham injured hearts ([2]; sham injured hearts) | post injury cardiac calcification on gross inspection [1] | reduction in calcium deposits in the injured hearts (biochemical measurements) [1] [%] | decrease in calcific deposits / calcification on micro CT with 3D reconstruction [1] [%]
1 | CC(O)(P(=O)(O)O)P(=O)(O)O [etidronate, etidronic acid] | did not reverse or decrease the amount of deposited calcium | no calcification was seen | completely rescued the calcific phenotype | significant preservation of post injury cardiac function | substantially better | substantially better | better systolic function | significantly decreased | significantly decreased | no effect |  |  | 
2 | O=C(/C=C/c1ccc(O)c(O)c1)O[C@H](Cc1ccc(O)c(O)c1)C(=O)O [SYL-001, rosmarinic acid] |  |  |  |  |  |  |  |  |  |  | decreased post injury cardiac calcification | 35 | 42
3 | CCN(CC)c1ncnc2c1ncn2[C@@H]1O[C@H](COP(=O)([O-])OP(=O)([O-])C(Br)(Br)P(=O)([O-])O)C(O)C1O.[Na+].[Na+].[Na+] (stereo partly shown) [ARL67156] |  |  |  |  |  |  |  |  |  |  | significantly inhibited calcification | 79 | 85
